Data taken from patent US20150343016A1, “CHEMICAL ENTITIES AND THERAPEUTIC USES THEREOF” (The Regents of the University of Colorado, a body corporate, priority 2010, published 2015).
Entries after “also recorded” stand apart in the source; their conditions may differ.

Assays:
[1] = target: in vitro translation in rabbit reticulocytes; experiment: In vitro translation assay in rabbit reticulocytes with Luciferase mRNA; assay type: biochemical
Procedure: In vitro translation assays were performed in rabbit reticulocytes (Promega) according to manufacturer's instruction, in the presence or absence of Bouvardin at final concentrations shown. Luciferase mRNA provided in the kit was used at a final concentration of 1 ug/ul. The reactions samples were incubated for 15 minutes at 37° C. and quenched by dilution with water. Luciferase activity was measured using a plate reader Multi-Mode Microplate Reader (Synergy 2 by BioTek) immediately after luciferase substrate addition. Samples were also subjected to electrophoresis on SDS-polyacrylamide gels and immunoblotted with goat polyclonal α-luciferase primary antibodies (Promega) and donkey anti-goat IgG, HRP secondary antibodies (Promega). The blots were visualized using chemiluminescence detection (Pierce). (A) Luciferase activity at different concentrations of Bouvardin. Error bars show SEM from triplicate samples. (B) Luciferase protein levels in corresponding samples.

H157 cells = experiment: MTT assay, Bouvardin with ionizing radiation, H157; assay type: cell-based, human
Procedure: “Combination Index” computation. Combination Indices were calculated using CalcuSyn software (Biosoft), which uses the method of Chou and Talalay. This method first computes drug-induced effect using the Hill Equation: where E is the measured effect; C is the drug concentration; Emax is the full range of drug effect, usually at or near 100%; IC50 is the drug concentration producing the median effect of 50%; and n is the curve shape parameter describing the steepness of the concentration-effect relationship. The Chou and Talalay method then linearizes the Hill Equation by logarithmic transformation as: where fu is the fraction of cells left unaffected after drug exposure, fa is the fraction of cells affected by the exposure, C is the drug concentration used, Cm is the concentration to achieve the median effect, and n is the curve shape parameter. Cm and n are equivalent to IC50 and n, respectively, in the Hill Equation. The values of n (obtained from the slope), nlog(Cm) (obtained from the absolute value of the intercept), and, therefore, Cm are obtained by plotting log(fu−1−1) versus log(C). These numbers are then used to compute the Combination Index (CI) according to the formula: CI=(D)1/(Dx)1+(D)2/(Dx)2 (26). (Dx)1 and (Dx)2 are the doses required to achieve a given effect level for each treatment, i.e. a specified value of Fraction Affected or Fa. (D)1 and (D)2 are the doses of each treatment in a given combination which gives the same Fa.
In FIG. 16 MTT assays were used to determine the effect of Bouvardin in combination with IR. Cells were either treated with drug for 24 hr prior to irradiation (A and C, ‘pre-treatment’) or drug and radiation were applied on the same day (B and D, ‘same day treatment’). (A & B) Fraction of cells killed or otherwise eliminated (Fraction Affected) at different doses of Bouvardin and 0 or 2 Gy of IR. (C & D) Combination Index (CI) data from two experiments with pre-treatment protocol, to illustrate reproducibility. CIs below 1 indicate synergy.
In the absence of radiation, the drug has an IC50 (Fraction Affected, Fa=0.5) in the nM range ([…], ‘0 Gy’). Fraction Affected is determined by the formula, 1−(x/y), where x is the MTT signal for the experimental sample and y is the MTT signal for the un-treated control. For example, if the MTT signal in the experimental is 30% of the MTT signal in the control, fraction affected is 0.7. Radiation increased the Fa in a dose-dependent manner in the absence of drug. The addition of the drug further increased the Fa for each dose of radiation. This happened whether the drug was added 24 hr before irradiation (pre-treatment, FIGS. 16A,C) or concurrently (same day treatment, FIGS. 16B,D).
The efficiency of Bouvardin in increasing the effect of radiation on cancer cells is measured in terms of Combination Index (CI) as determined by CalcuSyn software according to the method of Chou and Talalay. This method is widely used in biomedical literature and it has been applied to combinations of antitumor drugs. CI values are calculated from Fa values for multiple drug and radiation doses such as those shown in FIGS. 16 A and B. CI computation takes into account the shape of the dose-response curve, the maximal effect, the intercept, and the IC50 values for drug at each dose of radiation and IC50 for radiation at each dose of drug. […]
The growth inhibitory effects of Bouvardin with ionizing radiation (IR) were evaluated using a modified tetrazolium salt (MTT) assay. […]

## COc1ccc(C[C@H]2C(=O)N[C@H](C)C(=O)N(C)[C@@H]3C(=O)N(C)[C@@H](Cc4ccc(O)c(c4)Oc4ccc(cc4)[C@H]3O)C(=O)N[C@@H](C)C(=O)N[C@H](C)C(=O)N2C)cc1 (stereo in doubt) [Bouvardin, bouvardin]
[1]
  IC50 in in vitro translation reactions: nM range
[1]; 15 minutes at 37° C.
  effect on in vitro translation (luciferase activity and protein): inhibits translation
H157 cells; 0.3 μM of drug
  interaction with radiation in cell-based assays: synergistically
H157 cells; 0.6 μM of drug
  interaction with radiation in cell-based assays: additively/antagonistically
H157 cells; H157
  interaction of Bouvardin with radiation: synergy over a wide range of doses; also recorded: synergize
H157 cells; H157, in the absence of radiation (0 Gy)
  IC50 (Fraction Affected, Fa=0.5): nM range
H157 cells; H157, listed as bouvardin
  interaction of Bouvardin with radiation: synergizes with ionizing radiation
